Tests used:
Assay in all cases: relative viability (nuclei count vs DMSO), 5 days (fraction); higher = more cells survive
[1] = compound: C/C(=N\NC(=S)N1CCC1)/C2=CC=CC=N2
Summary of the method: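 Nuclei counted with MetaXpress define viability as the ratio of treated to vehicle wells, given as a median across plates. The lung cancer cell lines were in 1536-well plates, pinned with five √10-spaced library-drug doses and imaged at 4× after 5 days and Hoechst staining. Plates passed with control CV below 25% and at least one doubling.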

[2] = compound: C/C(=N\NC(=S)N1CCC1)/C2=CC=CC=N2 + CC1(C)CCC(c2ccc(Cl)cc2)=C(CN2CCN(c3ccc(C(=O)NS(=O)(=O)c4ccc(N[C@H](CCN5CCOCC5)CSc5ccccc5)c(S(=O)(=O)C(F)(F)F)c4)cc3)CC2)C1 [Navitoclax] (partner 0.5 µM)
Summary of the method: (§1)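 After 5 days of treatment, lung cancer cells in 1536-well plates were fixed and stained in a single step (final 0.05% Triton X-100, 1% formaldehyde, 1 ug/ml Hoechst) and their nuclei counted on 4× images. Treatment had been applied by pin tool the day after seeding as one drug alone or as a fixed anchor-drug dose with five library-drug doses (not always all listed) in √10 steps. Relative viability is the nuclei count of treated wells divided by that of vehicle wells, and values are medians of duplicate plates.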

[3] = compound: C/C(=N\NC(=S)N1CCC1)/C2=CC=CC=N2 + Cc1cc(Nc2cc(N3CCN(C)CC3)nc(Sc3ccc(NC(=O)C4CC4)cc3)n2)n[nH]1 [Tozasertib] (partner 0.1 µM)
Summary of the method: as §1

[4] = compound: C/C(=N\NC(=S)N1CCC1)/C2=CC=CC=N2 + N=C(N)NC(=N)NCCc1ccccc1 [Phenformin] (partner 250 µM)
Summary of the method: as §1

Row | Cell Line | relative viability ([1]; 0.05 µM) | relative viability ([1]; 0.1581 µM) | relative viability ([1]; 0.5 µM) | relative viability ([1]; 1.581 µM) | relative viability ([1]; 5 µM) | relative viability ([2]; first compound 0.05 µM) | relative viability ([2]; first compound 0.1581 µM) | relative viability ([2]; first compound 0.5 µM) | relative viability ([2]; first compound 1.581 µM) | relative viability ([2]; first compound 5 µM) | relative viability ([3]; first compound 0.05 µM) | relative viability ([3]; first compound 0.1581 µM) | relative viability ([3]; first compound 0.5 µM) | relative viability ([3]; first compound 1.581 µM) | relative viability ([3]; first compound 5 µM) | relative viability ([4]; first compound 0.05 µM) | relative viability ([4]; first compound 0.1581 µM) | relative viability ([4]; first compound 0.5 µM) | relative viability ([4]; first compound 1.581 µM) | relative viability ([4]; first compound 5 µM)
1 | COR-L23 | 0.148 | 0.133 | 0.138 | 0.113 | 0.102 | 0.108 | 0.111 | 0.0885 | 0.077 | 0.0905 | 0.101 | 0.0974 | 0.0768 | 0.0695 | 0.101 | 0.104 | 0.102 | 0.104 | 0.0877 | 0.0862
2 | COR-L 105 | 0.287 | 0.364 | 0.342 | 0.245 | 0.292 | 0.288 | 0.316 | 0.26 | 0.236 | 0.317 | 0.205 | 0.245 | 0.229 | 0.231 | 0.22 | 0.198 | 0.299 | 0.29 | 0.196 | 0.214
3 | ChaGo-K-1 | 0.204 | 0.227 | 0.2 | 0.18 | 0.186 | 0.293 | 0.47 | 0.27 | 0.218 | 0.374 | 0.141 | 0.154 | 0.17 | 0.151 | 0.168 | 0.176 | 0.194 | 0.188 | 0.152 | 0.174
4 | EKVX | 0.129 | 0.138 | 0.118 | 0.153 | 0.161 | 0.127 | 0.131 | 0.119 | 0.132 | 0.137 | 0.131 | 0.108 | 0.101 | 0.103 | 0.12 | 0.14 | 0.132 | 0.167 | 0.161 | 0.23
5 | EMC-BAC-2 | 0.215 | 0.237 | 0.219 | 0.189 | 0.207 | 0.25 | 0.645 | 0.162 | 0.21 | 0.168 | 0.176 | 0.187 | 0.147 | 0.151 | 0.167 | 0.156 | 0.233 | 0.214 | 0.211 | 0.212
6 | EPLC-272H | 0.163 | 0.161 | 0.124 | 0.0926 | 0.136 | 0.108 | 0.356 | 0.138 | 0.125 | 0.151 | 0.0738 | 0.0936 | 0.118 | 0.0848 | 0.114 | 0.112 | 0.13 | 0.084 | 0.0614 | 0.122
7 | H3255 | 0.316 | 0.331 | 0.273 | 0.254 | 0.274 | 0.103 | 0.123 | 0.101 | 0.094 | 0.148 | 0.331 | 0.167 | 0.288 | 0.193 | 0.232 | 0.318 | 0.333 | 0.317 | 0.301 | 0.346
8 | HARA | 0.193 | 0.21 | 0.138 | 0.143 | 0.138 | 0.361 | 0.165 | 0.212 | 0.124 | 0.11 | 0.0547 | 0.0677 | 0.0627 | 0.0539 | 0.0645 | 0.0726 | 0.0701 | 0.0872 | 0.047 | 0.0649

From the supplement of paper PMC10307832
